29 compounds from publication doi:10.1101/2021.04.29.441652v1 (biorxiv, 2021) can be followed below.

Molecules are shown by their SMILES.

human σ2 receptor (TMEM97), sequence (Q5BJF2 whole entry): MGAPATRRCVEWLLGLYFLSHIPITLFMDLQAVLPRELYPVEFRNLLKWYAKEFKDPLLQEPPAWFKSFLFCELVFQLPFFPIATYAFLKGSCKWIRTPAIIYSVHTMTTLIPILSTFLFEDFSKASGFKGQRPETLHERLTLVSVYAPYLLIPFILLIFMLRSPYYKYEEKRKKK

This assay has as its target human σ2 receptor (TMEM97) (Homo sapiens, UniProt Q5BJF2). Put plainly: biochemical. Type of assay: Expi293 membranes. Conditions: read-out: % of control remaining.
As to `C[C@H](Cc1ccccc1Br)NCC1(O)CCC1` [ZINC000577603040], the remaining activity at 1 µM is 61.7%.

In the case of `O[C@@H]1CC[C@@H]2CN(Cc3cccc4c[nH]nc34)C[C@@H]21` [ZINC000582751592], the remaining activity at 1 µM turned out to be 72.4%.

Turning to `Fc1cccc(Cl)c1CNC1CCC2(CCCO2)CC1` (centres unmarked) [ZINC000584028046], the remaining activity at 1 µM came out at 18.4%.

On to `CC1(C)Cc2cc(C(=O)N3CCC[C@@H](N4CCCC4)CC3)ccc2O1` [ZINC000584233558], for which the remaining activity at 1 µM turned out to be 22.7%.

Regarding `C[C@@H](C(=O)NC[C@H](C)N1CCCC1)c1c(Cl)cccc1Cl` [ZINC000586751050], the remaining activity at 1 µM was 98.2%.

On to `O=C(Cn1cc([N+](=O)[O-])ccc1=O)N1CC[C@H](N2CC[C@@H](O)C2)C1` [ZINC000588863575], for which the remaining activity at 1 µM was found to be 134%.

Regarding `C[C@H](CN(C)CC(=O)NCc1cccc(Cl)c1)c1ccccc1` [ZINC000589606863], the remaining activity at 1 µM was determined as 68.9%.

Turning to `CC(C)Cc1ccc(C(=O)N2CCN([C@@H]3CCC[C@@H]3O)CC2)cc1` [ZINC000592403811], the remaining activity at 1 µM was 153%.

Take `CCCN1CC[C@H](NS(=O)(=O)c2ccc(C(=O)OC)cc2F)C1` [ZINC000595353335]: the remaining activity at 1 µM amounted to 97.7%.

As for `N#Cc1sccc1N1CCN(CCCCCn2cccn2)CC1` [ZINC000595632104], the remaining activity at 1 µM came to 45.7%.

On to `Cc1cc([N+](=O)[O-])ccc1NC(=O)CN1CCC[C@@H]([C@@H]2CCCCO2)C1` [ZINC000595790972], for which the remaining activity at 1 µM turned out to be 96.1%.

For the compound `CCc1c(C(=O)N[C@@H](C)C2CCN(C)CC2)cnn1-c1ccccc1` [ZINC000603324806], the remaining activity at 1 µM worked out at 65.5%.

Regarding `CC(C)Cc1ccc(C(=O)Nc2ccc(OCCN3CCN(C)CC3)cc2)cc1` [ZINC000608224751], the remaining activity at 1 µM was 75.6%.

As for `COC(=O)[C@H](NCC(C)(C)N1CCc2ccccc2C1)c1ccccc1` [ZINC000609803478], the remaining activity at 1 µM amounted to 49.8%.

With `COC(=O)[C@H](c1cccc(Cl)c1Cl)N1CCC[C@H](N2CCCC2)C1` [ZINC000611661177], the remaining activity at 1 µM stood at 19.1%.

In the case of `CCN1CC[C@H](N(CC)C(=O)c2cccc(C(F)(F)F)n2)C1` [ZINC000617924178], the remaining activity at 1 µM was 126%.

With `CN(C)S(=O)(=O)N(C)CC(=O)N[C@@H]1COc2cc(F)ccc2C1` [ZINC000618647685], the remaining activity at 1 µM was found to be 91.7%.

With `CCCN1CCC[C@H]1C(=O)NCc1cnccc1C(F)(F)F` [ZINC000621202771], the remaining activity at 1 µM stood at 61.4%.

Turning to `CC(C)(CO)N1CCN(c2nc3c(Br)cccc3s2)CC1` [ZINC000621267824], the remaining activity at 1 µM is 33.4%.

As to `C[C@@H]1CCCC[C@H]1OCCNC(=O)NC[C@H]1CCCCN(C)C1` [ZINC000623468108], the remaining activity at 1 µM was determined as 84.9%.

On to `CC(C)CC[C@@H](CO)N[C@H](C)c1nc2c(s1)CCCC2` [ZINC000624110289], for which the remaining activity at 1 µM was 49.3%.

Turning to `COCC(COC)N1CCN(S(=O)(=O)c2cnc(C)n2C)CC1` [ZINC000625246444], the remaining activity at 1 µM was 105%.

Turning to `O=C([C@@H]1CCCN1c1ncccn1)N1CC[C@@H](N2CC[C@H](O)C2)C1` [ZINC000627254962], the remaining activity at 1 µM came out at 114%.

Turning to `COc1ccccc1C[C@@](C)(CO)NCc1ccc2c(c1)ncn2C` [ZINC000631236280], the remaining activity at 1 µM came out at 92%.

In the case of `O=C(Nc1cscc1Cl)C(=O)N[C@@H]1CCN(CC2CC2)C1` [ZINC000635049325], the remaining activity at 1 µM came to 53.2%.

Take `Clc1ccc(O[C@H]2CCN(C3CCCC3)C2)cc1` [ZINC000645238909]: the remaining activity at 1 µM was found to be 35.5%.

For the compound `C[C@@H](Cc1c(Cl)cccc1Cl)NC(=O)c1cn(C[C@@H]2CCCN2)nn1` [ZINC000646273308], the remaining activity at 1 µM was 106%.

`O=C(CN1CCC[C@@H]1[C@@H]1CCC[C@H]1O)N1CCOC[C@H]1C1CC1` [ZINC000649929688]: the remaining activity at 1 µM is 96.5%.

For `O=C(Nc1ccc2ncnn2c1)[C@]1(O)CCN(Cc2ccccc2)C1` [ZINC000655168559], the remaining activity at 1 µM was found to be 97.6%.
